Experimental data from US10987317B2, “Inhibition of glutaminase C” (Cornell University, priority 2009, dated 2021).

How the values were obtained:
[1] = test system: NIH 3T3 cells stably expressing Cdc42(F28L), Rac(F28L), RhoC(F30L); assay: Transforming activity of constitutively active Rho GTPase mutants; type: cell-based; conditions: 10 μM
Protocol: FIGS. 2A-G illustrate effects of 968 on the transforming activity of constitutively active Rho GTPases and human breast cancer cells. […] Cells are scored after 14 days and plotted as the percentage of the total number of colonies greater than […] in diameter. Data represent the average of 3 experiments (±s.d.). […] Data represent the average of 3 experiments (±s.d.). […] Data represent the average of 3 experiments (±s.d.). […] After 24 hours at 37° C. the migratory cells are fixed, stained with GIEMSA, and counted. Data represent the average of 3 experiments (±s.d.). […] Data represent the average of 3 experiments (±s.d.). […] Data represent the average of 3 experiments (±s.d.). […] Data represent the average of 3 experiments (±s.d.).

[2] = test system: GA activity in SKBR3 cells; assay: GA activity in mitochondrial fractions; type: cell-based, human; conditions: 10 μM, phosphate-independent
Protocol: (§1) 100%=620 moles of glutamine hydrolyzed per minute per mole of enzyme. Data represent the average of 3 experiments (±s.d.). […] Following precipitation of the beads and re-suspension, the samples are analyzed by Western blotting with anti-V5 antibody. […] Data represent the average of 3 experiments (±s.d.). […] Data represent the average of 3 experiments (±s.d.). […] Data represent the average of 3 experiments (±s.d.). FIG. 3E NIH 3T3 cells transiently expressing Dbl are assayed for focus formation in the presence of 10 μM 968 alone or together with […] dimethyl α-ketoglutarate. […] 100%=680 nM glutamine hydrolyzed per minute per 10^5 cells. Data are the average of 3 experiments (=s.d.). […] 100%=750 nM glutamine hydrolyzed per minute per 10^5 cells. Data represent the average of 3 experiments (±s.d.).
(§2) FIGS. 4A-E illustrate the role of glutaminase C activity in cellular transformation. […] Data represent the average of 3 experiments (±s.d.). […] Data represent the average of 3 experiments (±s.d.). […] 100% represents the activity measured in untreated Dbl-transformed cells. The data represent the average of 2 experiments. […] 100% represents the activity measured in untreated SKBR3 cells. The data represent the average of 2 experiments. […] Data represent the average of 3 experiments (±s.d.).
FIGS. 11A-E illustrate the effects of different treatments on GA activity. […] The addition of Pi stimulated the GA activity in control 3T3 cells, Dbl-expressing cells, and Cdc42(F28L)-expressing cells by ˜6-fold, 2-fold, and 3-fold, respectively. 100% represents the Pi-stimulated activity measured for Dbl-transformed cells that are not treated with 968. Data is the average of 3 experiments (±s.d.). […] The addition of Pi stimulated the GA activity of HMECs, MDA-MB231 cells, and SKBR3 cells by ˜5-fold, 2-fold, and 1.4-fold, respectively. […] The data are plotted as the percentage of GA activity measured for untreated SKBR3 cells and represent the average of 2 experiments. […] 100% represents the P1-stimulated activity measured for untreateDbl-transformed cells. […]

[3] = test system: GA activity in Dbl- and Cdc42(F28L)-expressing NIH 3T3 cells; assay: GA activity in mitochondrial fractions of transformed fibroblasts; type: cell-based; conditions: 10 μM
Protocol: as §1, §2
FIGS. 11A-E illustrate the effects of different treatments on GA activity. […] The addition of Pi stimulated the GA activity in control 3T3 cells, Dbl-expressing cells, and Cdc42(F28L)-expressing cells by ˜6-fold, 2-fold, and 3-fold, respectively. 100% represents the Pi-stimulated activity measured for Dbl-transformed cells that are not treated with 968. Data is the average of 3 experiments (±s.d.). […] The addition of Pi stimulated the GA activity of HMECs, MDA-MB231 cells, and SKBR3 cells by ˜5-fold, 2-fold, and 1.4-fold, respectively. 100% represents the Pi-stimulated activity for SKBR3 cells that were not treated with 968. Data are the average of 3 experiments (±s.d.). […] Mitochondrial fractions are prepared from equal numbers of cells and assayed for GA activity in the presence or absence of 133 mM Pi. The data are plotted as the percentage of GA activity measured for untreated SKBR3 cells and represent the average of 2 experiments. […] 100% represents the P1-stimulated activity measured for untreateDbl-transformed cells. The data represent the average of 2 experiments. […] 100% represents the Pi-stimulated activity for untreated SKBR3 cells. The data represent the average of 2 experiments.
Mitochondrial preparations were obtained using the mitochondria isolation kit from QIAGEN (Cat #37612). A suspension containing 2×10^7 cells was transferred into a 50 ml conical tube and centrifuged at 500×g for 10 minutes at 4° C. […]

CN(C)c1ccc(C2Nc3ccc4ccccc4c3C3=C2C(=O)CC(C)(C)C3)cc1Br (stereo not shown) [Compound 968, 5-[3-bromo-4-(dimethylamino)phenyl]-2,2-dimethyl-2,3,5,6-tetrahydrobenzo[a]]
colony formation in soft-agar [1]: blocking
growth under low serum conditions ([1]; 1% calf serum): blocking
growth to high density ([1]; 10% calf serum, 6 days): blocking
invasive activity ([1]; Matri-gel, 24 hours): inhibiting
basal GA activity [2]: sensitive
GA activity of transformed cells [3]: inhibits
sensitivity of basal versus phosphate-stimulated GA activity ([3]; 133 mM Pi): basal activity being more sensitive
